Results taken from PubChem BioAssay (NCI).
Where “and” joins values, the source holds several entries; their conditions need not be identical. Equal entries are not always repeated.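 Growth conditions: 96-well plates. Treatment: test compound, 48 hours, 5 concentrations. Analysis: linear interpolation between bracketing concentrations; unreached endpoints set to highest concentration. Here, GI50 denotes the concentration required for 50% inhibition of growth. The concentration for full growth arrest is given as TGI.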

Legend:
Assay in all cases: inhibition of tumour cell growth, NCI panel, 48 h
EKVX NSCLC = test system: EKVX NSCLC
OVCAR-4 ovarian = test system: OVCAR-4 ovarian
OVCAR-5 ovarian = test system: OVCAR-5 ovarian
HT29 colon = test system: HT29 colon
SK-OV-3 ovarian = test system: SK-OV-3 ovarian
TK-10 renal = test system: TK-10 renal
COLO 205 colon = test system: COLO 205 colon
HS 578T breast = test system: HS 578T breast
CAKI-1 renal = test system: CAKI-1 renal
T-47D breast = test system: T-47D breast
SK-MEL-28 melanoma = test system: SK-MEL-28 melanoma
HCC-2998 colon = test system: HCC-2998 colon
KM20L2 colon = test system: KM20L2 colon
HOP-18 NSCLC = test system: HOP-18 NSCLC
UO-31 renal = test system: UO-31 renal
BT-549 breast = test system: BT-549 breast
SNB-78 CNS = test system: SNB-78 CNS
786-0 renal = test system: 786-0 renal
NCI/ADR-RES ovarian = test system: NCI/ADR-RES ovarian
SNB-75 CNS = test system: SNB-75 CNS
HL-60(TB) leukemia = test system: HL-60(TB) leukemia
UACC-257 melanoma = test system: UACC-257 melanoma
NCI-H460 lung = test system: NCI-H460 lung
NCI-H226 lung = test system: NCI-H226 lung
U251 CNS = test system: U251 CNS
MCF7 breast = test system: MCF7 breast
HOP-62 NSCLC = test system: HOP-62 NSCLC
MDA-MB-231 breast = test system: MDA-MB-231 breast
UACC-62 melanoma = test system: UACC-62 melanoma
ACHN renal = test system: ACHN renal
PC-3 prostate = test system: PC-3 prostate
A498 renal = test system: A498 renal
MALME-3M melanoma = test system: MALME-3M melanoma
SNB-19 CNS = test system: SNB-19 CNS
SR leukemia = test system: SR leukemia
DU-145 prostate = test system: DU-145 prostate
SF-295 CNS = test system: SF-295 CNS
SN12C renal = test system: SN12C renal
MDA-N = test system: MDA-N
SF-268 CNS = test system: SF-268 CNS
M14 melanoma = test system: M14 melanoma
RXF 393 renal = test system: RXF 393 renal
SK-MEL-2 melanoma = test system: SK-MEL-2 melanoma
SW-620 colon = test system: SW-620 colon
CCRF-CEM leukemia = test system: CCRF-CEM leukemia
MDA-MB-435 = test system: MDA-MB-435
HCT-15 colon = test system: HCT-15 colon
OVCAR-3 ovarian = test system: OVCAR-3 ovarian
MOLT-4 leukemia = test system: MOLT-4 leukemia
HCT-116 colon = test system: HCT-116 colon
IGROV1 ovarian = test system: IGROV1 ovarian
OVCAR-8 ovarian = test system: OVCAR-8 ovarian
NCI-H23 lung = test system: NCI-H23 lung
LOX IMVI melanoma = test system: LOX IMVI melanoma
A549 NSCLC = test system: A549 NSCLC
NCI-H522 lung = test system: NCI-H522 lung
HOP-92 NSCLC = test system: HOP-92 NSCLC
SK-MEL-5 melanoma = test system: SK-MEL-5 melanoma
K-562 leukemia = test system: K-562 leukemia
SF-539 CNS = test system: SF-539 CNS
RPMI-8226 leukemia = test system: RPMI-8226 leukemia
KM12 colon = test system: KM12 colon

**Q.** With `COc1ccc(/C=C\c2cc(OC)c(OC)c(OC)c2)cc1O` as the molecule, how does the TGI (EKVX NSCLC) read?
**A.** 82.1 µM

**Q.** And the GI50 (OVCAR-4 ovarian)?
**A.** 6.58 µM

**Q.** And the GI50 (OVCAR-5 ovarian)?
**A.** 4.27 µM

**Q.** And the TGI (OVCAR-5 ovarian)?
**A.** 78.6 µM and > 91.4 µM

**Q.** And the GI50 (HT29 colon)?
**A.** 0.664 µM

**Q.** What about the TGI (HT29 colon) of the same molecule?
**A.** 9.28 µM and > 44.9 µM

**Q.** And the TGI (SK-OV-3 ovarian)?
**A.** < 0.031 µM

**Q.** What about the GI50 (TK-10 renal) of the same molecule?
**A.** 2.63 µM and 0.567 µM

**Q.** And the TGI (TK-10 renal)?
**A.** 4.16 µM

**Q.** What about the GI50 (COLO 205 colon) of the same molecule?
**A.** 2.49 µM

**Q.** And the TGI (COLO 205 colon)?
**A.** 43.3 µM and 22.1 µM

**Q.** And the TGI (HS 578T breast)?
**A.** 8.09 µM

**Q.** What about the TGI (CAKI-1 renal) of the same molecule?
**A.** 13.9 µM and > 59.5 µM

**Q.** And the GI50 (T-47D breast)?
**A.** 48 µM

**Q.** What about the TGI (T-47D breast) of the same molecule?
**A.** 91.2 µM

**Q.** And the GI50 (SK-MEL-28 melanoma)?
**A.** 3.16 µM

**Q.** And the TGI (HCC-2998 colon)?
**A.** 1.22 µM and 2.38 µM

**Q.** And the TGI (KM20L2 colon)?
**A.** 8.28 µM and 16.2 µM

**Q.** What about the TGI (HOP-18 NSCLC) of the same molecule?
**A.** > 100 µM

**Q.** And the TGI (UO-31 renal)?
**A.** > 88.6 µM

**Q.** And the TGI (BT-549 breast)?
**A.** > 100 µM

**Q.** What about the GI50 (SNB-78 CNS) of the same molecule?
**A.** 0.00409 µM and < 0.001 µM

**Q.** And the TGI (SNB-78 CNS)?
**A.** > 100 µM

**Q.** And the TGI (786-0 renal)?
**A.** 25.5 µM

**Q.** With `COc1ccc(C(=O)/C=C/c2cc(O)c(O)cc2F)c(OC)c1` as the molecule, how does the TGI (NCI/ADR-RES ovarian) read?
**A.** > 68.7 µM

**Q.** And the TGI (SNB-75 CNS)?
**A.** 20.7 µM

**Q.** What about the TGI (HL-60(TB) leukemia) of the same molecule?
**A.** 5.71 µM

**Q.** What about the TGI (UACC-257 melanoma) of the same molecule?
**A.** 22.7 µM

**Q.** And the TGI (NCI-H460 lung)?
**A.** 17.7 µM

**Q.** What about the TGI (NCI-H226 lung) of the same molecule?
**A.** 55 µM

**Q.** What about the TGI (EKVX NSCLC) of the same molecule?
**A.** 49 µM

**Q.** What about the TGI (OVCAR-4 ovarian) of the same molecule?
**A.** > 100 µM

**Q.** What about the TGI (U251 CNS) of the same molecule?
**A.** 20.9 µM

**Q.** What about the TGI (MCF7 breast) of the same molecule?
**A.** 13.9 µM

**Q.** What about the TGI (HOP-62 NSCLC) of the same molecule?
**A.** 31.1 µM

**Q.** What about the TGI (MDA-MB-231 breast) of the same molecule?
**A.** 64.3 µM

**Q.** And the TGI (UACC-62 melanoma)?
**A.** 23.1 µM

**Q.** What about the TGI (ACHN renal) of the same molecule?
**A.** > 63.3 µM

**Q.** And the TGI (PC-3 prostate)?
**A.** 25.4 µM

**Q.** And the TGI (A498 renal)?
**A.** 26.8 µM

**Q.** And the TGI (OVCAR-5 ovarian)?
**A.** 33.5 µM

**Q.** What about the TGI (MALME-3M melanoma) of the same molecule?
**A.** 24.6 µM

**Q.** What about the TGI (SNB-19 CNS) of the same molecule?
**A.** 24.9 µM

**Q.** What about the TGI (SR leukemia) of the same molecule?
**A.** 14.1 µM

**Q.** And the TGI (HT29 colon)?
**A.** 26 µM

**Q.** And the TGI (SK-OV-3 ovarian)?
**A.** 47.2 µM

**Q.** What about the TGI (DU-145 prostate) of the same molecule?
**A.** 27.3 µM

**Q.** What about the TGI (SF-295 CNS) of the same molecule?
**A.** 23.5 µM

**Q.** What about the TGI (SN12C renal) of the same molecule?
**A.** 18 µM

**Q.** And the TGI (MDA-N)?
**A.** 53.4 µM

**Q.** And the TGI (SF-268 CNS)?
**A.** 32.3 µM

**Q.** And the TGI (M14 melanoma)?
**A.** 23.9 µM

**Q.** What about the TGI (TK-10 renal) of the same molecule?
**A.** 66.3 µM

**Q.** What about the TGI (RXF 393 renal) of the same molecule?
**A.** 26.7 µM

**Q.** And the TGI (SK-MEL-2 melanoma)?
**A.** 18.3 µM

**Q.** What about the TGI (COLO 205 colon) of the same molecule?
**A.** 29.8 µM

**Q.** And the TGI (HS 578T breast)?
**A.** > 65.3 µM

**Q.** And the TGI (SW-620 colon)?
**A.** > 55.3 µM

**Q.** And the TGI (CCRF-CEM leukemia)?
**A.** 15.2 µM

**Q.** What about the TGI (CAKI-1 renal) of the same molecule?
**A.** > 100 µM

**Q.** And the TGI (MDA-MB-435)?
**A.** > 100 µM

**Q.** And the TGI (HCT-15 colon)?
**A.** > 40.9 µM

**Q.** What about the TGI (T-47D breast) of the same molecule?
**A.** > 80.3 µM

**Q.** And the TGI (OVCAR-3 ovarian)?
**A.** 2.65 µM

**Q.** And the TGI (SK-MEL-28 melanoma)?
**A.** 31.1 µM

**Q.** What about the TGI (MOLT-4 leukemia) of the same molecule?
**A.** 45.1 µM

**Q.** What about the TGI (HCT-116 colon) of the same molecule?
**A.** 20.4 µM

**Q.** And the TGI (IGROV1 ovarian)?
**A.** > 88.2 µM

**Q.** And the TGI (OVCAR-8 ovarian)?
**A.** > 76.6 µM

**Q.** What about the TGI (HCC-2998 colon) of the same molecule?
**A.** 7.42 µM

**Q.** And the TGI (NCI-H23 lung)?
**A.** 26.6 µM

**Q.** And the TGI (LOX IMVI melanoma)?
**A.** 26.9 µM

**Q.** What about the TGI (A549 NSCLC) of the same molecule?
**A.** > 75.4 µM

**Q.** What about the TGI (NCI-H522 lung) of the same molecule?
**A.** 3.19 µM

**Q.** And the TGI (HOP-92 NSCLC)?
**A.** > 100 µM

**Q.** What about the TGI (SK-MEL-5 melanoma) of the same molecule?
**A.** 20.9 µM

**Q.** What about the TGI (K-562 leukemia) of the same molecule?
**A.** > 43.1 µM

**Q.** What about the TGI (SF-539 CNS) of the same molecule?
**A.** 31 µM

**Q.** And the TGI (UO-31 renal)?
**A.** 30.8 µM

**Q.** What about the TGI (BT-549 breast) of the same molecule?
**A.** 24.4 µM

**Q.** What about the TGI (RPMI-8226 leukemia) of the same molecule?
**A.** 36.4 µM

**Q.** What about the TGI (KM12 colon) of the same molecule?
**A.** > 79.9 µM

**Q.** And the TGI (786-0 renal)?
**A.** 22.9 µM
